Assay results published in patent US20230407243A1, “GENETIC PLATFORM TO INVESTIGATE THE FUNCTIONS OF BACTERIAL DRUG EFFLUX PUMPS” (priority 2022, published 2023).
Read-outs that look alike come from different tables or passages of the source.

Assays:
Format in all cases: cell-based, Escherichia coli
EKO-35-Pore = test: MIC susceptibility profiling, porinated strain; conditions: for Fold changes of MICs: EKO-35-Pore compared to EKO-35-Pore (reference); for Minimum inhibitory concentration (MIC), Pore EKO-35 / Minimum inhibitory concentration, EKO-35-Pore / MIC: technical duplicate; for MIC: Escherichia coli
Method: For genomic integration of the pore, the fhuA ΔC/Δ4L gene and the adjacent gentamicin resistance cassette were amplified using a high-fidelity polymerase and the fhuA_40_Up/gImS_3680_Low primers (Table 4). Integration of the pore gene was performed as described above. The pore gene was introduced into the intergenic region between the glmS and pstS genes, with gene expression under the control of a constitutive promoter (Kearse, M. et al., 2012). Genomic integrations were verified using PCR (Primers: pstS_520_Up/glmS_3680_Low, Table 4). Successful integrations were transformed with pCP20 to remove the gentamicin resistance cassette as previously described. Activity of the pore was confirmed through susceptibility testing with the large antibiotic vancomycin prior to phenotypic profiling and further susceptibility testing.
Single colonies were used to inoculate 3 mL of LB followed by incubation at 37° C. for 18 h with aeration at 220 rpm. The bacterial cells were harvested by centrifugation and resuspended in phosphate buffered saline (PBS) ([pH 7.4], 137 mM NaCl (Bioshop), 2.7 mM KCl (Bioshop), 10 mM Na2PO4 (Bioshop) and 1.8 mM K2PO4) to an OD600 nm˜1.0, followed by 1/2000 dilution into MHB II.
To a 384-well microtiter plate (Corning, untreated polystyrene), 500 nL of compound was dispensed, in duplicate, and serially titrated 2-fold using an Echo 550 acoustic liquid dispenser (Labcyte Inc.). […] As a solvent control, 500 nL of DMSO was applied to wells that contained no compound. Using a multichannel pipette, 50 μL of the prepared bacterial inoculum was applied to each well. To enable background correction post-incubation, the OD600 nm was measured (Biotek Synergy Neo2 microplate reader) prior to incubation. The plates were incubated at 37° C. with aeration at 900 rpm for 18 h. The plates were equilibrated to room temperature and the OD600 nm measured using a BioTek Synergy Neo2 microplate reader. Data was analyzed in both Prism (GraphPad, Version 9.2.0) and Microsoft Excel (Version 16.53). Raw data were input into Microsoft Excel and the pre-incubation OD600 nm measurements were subtracted from the post-incubation OD600 nm measurements. These corrected measurements were input into Prism 9 as a grouped analysis. […] All other MIC values were adjusted accordingly and visualized using the single-color scale grouped heat map function. Identification of compound chemical properties was achieved using DataWarrior (Version 5.5.0). Using PubChem, the SMILES chemical notation for each compound was obtained and compiled in Microsoft Excel. The resulting spreadsheet was input into DataWarrior and properties were calculated from the compound chemical structures.

EKO-35 araC::acrB Pore = test: MIC susceptibility profiling, porinated efflux platform; conditions: for Fold changes of MICs: EKO-35 araC::acr-B Pore compared to EKO-35-Pore; for Minimum inhibitory concentration, EKO-35 araC::acrB Pore / MIC: Table 14A, porinated, technical duplicate; for MIC: Escherichia coli, read-out: Minimum inhibitory concentration, EKO-35 araC::acrB Pore
Method in brief: (§1)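 E. coli strains carrying a genomically integrated constitutive fhuA ΔC/Δ4L pore were grown 18 h in LB at 37 °C, then diluted 1/2000 in MHB II from OD600 ~1.0. Compounds were tested in duplicate, 2-fold serial titration, for 18 h at 37 °C with shaking. MIC came from OD600 with the pre-incubation background subtracted.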

[1] = tested on: EKO-35 araC::acrBD408A Pore; test: as above; conditions: for Fold changes of MICs: EKO-35 araC::acrBD408A Pore compared to EKO-35-Pore; for Minimum inhibitory concentration / MIC: EKO-35 araC::acrBD408A Pore, technical duplicate; for MIC: Escherichia coli, read-out: Minimum inhibitory concentration
Method in brief: as §1

EKO-35 araC::acrD Pore = test: as above; conditions: for Fold changes of MICs: EKO-35 araC::acrD Pore compared to EKO-35-Pore; for Minimum inhibitory concentration, EKO-35 araC::acrD Pore / MIC: Table 14A, porinated, technical duplicate; for MIC: Escherichia coli, read-out: Minimum inhibitory concentration, EKO-35 araC::acrD Pore
Method in brief: as §1

EKO-35 araC::emrAB Pore = test: as above; conditions: for Fold changes of MICs: EKO-35 araC::emrAB Pore compared to EKO-35-Pore; for Minimum inhibitory concentration / MIC: EKO-35 araC::emrAB Pore, technical duplicate; for MIC: Escherichia coli, read-out: Minimum inhibitory concentration
Method in brief: as §1

EKO-35 araC::mdtBC Pore = test: as above; conditions: for Fold changes of MICs: EKO-35 araC::mdtBC Pore compared to EKO-35-Pore; for Minimum inhibitory concentration / MIC: EKO-35 araC::mdtBC Pore, technical duplicate; for MIC: Escherichia coli, read-out: Minimum inhibitory concentration; for efflux pump-mediated resistance vs EKO-35-Pore: MdtBC with the pore
Method in brief: as §1

EKO-35 araC::mexCD Pore = test: as above; conditions: for Fold changes of MICs: EKO-35 araC::mexCD Pore compared to EKO-35-Pore; for Minimum inhibitory concentration / MIC: EKO-35 araC::mexCD Pore, technical duplicate; for MIC: Escherichia coli, read-out: Minimum inhibitory concentration; for efflux pump-mediated resistance vs EKO-35-Pore: MexCD, OM compromised
Method in brief: as §1

[2] = Table 10, with pore, read-out: Minimum inhibitory concentration (MIC), Pore EKO-35
[3] = Table 14A, porinated, read-out: Minimum inhibitory concentration, EKO-35-Pore

Row | SMILES | Fold changes of MICs (EKO-35-Pore) | Minimum inhibitory concentration (MIC), Pore EKO-35 (EKO-35-Pore; Table 10, with pore) | Minimum inhibitory concentration, EKO-35-Pore (EKO-35-Pore; Table 14A, porinated) | Fold changes of MICs (EKO-35 araC::acrB Pore) | Minimum inhibitory concentration, EKO-35 araC::acrB Pore (EKO-35 araC::acrB Pore) | Fold changes of MICs [1] | Minimum inhibitory concentration [1] | Fold changes of MICs (EKO-35 araC::acrD Pore) | Minimum inhibitory concentration, EKO-35 araC::acrD Pore (EKO-35 araC::acrD Pore) | Fold changes of MICs (EKO-35 araC::emrAB Pore) | Minimum inhibitory concentration (EKO-35 araC::emrAB Pore) | Fold changes of MICs (EKO-35 araC::mdtBC Pore) | Minimum inhibitory concentration (EKO-35 araC::mdtBC Pore) | Fold changes of MICs (EKO-35 araC::mexCD Pore) | MIC (EKO-35-Pore; [2]) | MIC (EKO-35-Pore; [3]) | MIC [1] | MIC (EKO-35 araC::acrD Pore) | MIC (EKO-35 araC::emrAB Pore) | MIC (EKO-35 araC::mexCD Pore) | other results
1 | N#CC(C#N)=NNc1cccc(Cl)c1 [CCCP] | 1 fold | 6.25 µg/mL | 6.25 µg/mL | 1 fold | 6.25 µg/mL | 1 fold | 6.25 µg/mL | 1 fold | 6.25 µg/mL | 2 fold | 12.5 µg/mL | 2 fold | 12.5 µg/mL | 1 fold |  |  |  |  |  |  | efflux pump-mediated resistance vs EKO-35-Pore (EKO-35 araC::emrAB Pore; EmrAB, porinated strain): no longer provided resistance; Minimum inhibitory concentration (EKO-35 araC::mexCD Pore): 6.25 µg/mL
2 | COc1ccc(C[C@H](N)C(=O)N[C@H]2[C@@H](O)[C@H](n3cnc4c(N(C)C)ncnc43)O[C@@H]2CO)cc1 [puromycin] | 1 fold |  |  | 64 fold |  | 1 fold |  | 1 fold |  | 1 fold |  | 1 fold |  | 2 fold | 0.781 µg/mL | 0.781 µg/mL | 0.781 µg/mL | 0.781 µg/mL | 0.781 µg/mL | 1.56 µg/mL | MIC (EKO-35 araC::mdtBC Pore): 0.781 µg/mL; efflux pump-mediated resistance vs EKO-35-Pore (EKO-35 araC::mexCD Pore): no longer associated MexCD with resistance
3 | C[C@H](CCC(=O)NCCS(=O)(=O)[O-])[C@H]1CC[C@H]2[C@@H]3CC[C@@H]4C[C@H](O)CC[C@]4(C)[C@H]3C[C@H](O)[C@]12C.[Na+] [sodium taurodeoxycholate] | 1 fold | 250 µg/mL | 250 µg/mL | 4 fold | 1000 µg/mL | 1 fold | 250 µg/mL | 4 fold | 1000 µg/mL | 2 fold | 500 µg/mL | 4 fold | 1000 µg/mL | 4 fold |  |  |  |  |  |  | efflux pump-mediated resistance vs EKO-35-Pore (EKO-35 araC::acrB Pore; AcrB with the pore): increased resistance; efflux pump-mediated resistance vs EKO-35-Pore (EKO-35 araC::mdtBC Pore): associated MdtBC with resistance; Minimum inhibitory concentration (EKO-35 araC::mexCD Pore): 1000 µg/mL; efflux pump-mediated resistance vs EKO-35-Pore (EKO-35 araC::mexCD Pore): increased resistance
4 | N#CC(C#N)=NNc1ccc(-n2ccc(C(F)(F)F)n2)cc1 [compound 8] | 1 fold | 80 µg/mL | 80 µg/mL | 2 fold | 160 µg/mL | 1 fold | 80 µg/mL | 1 fold | 40 µg/mL | 1 fold | 40 µg/mL | 1 fold | 80 µg/mL | 1 fold |  |  |  |  |  |  | Minimum inhibitory concentration (EKO-35 araC::mexCD Pore): 80 µg/mL
5 | CN(C)[C@@H]1C(O)=C(C(N)=O)C(=O)[C@@]2(O)C(O)=C3C(=O)c4c(O)cccc4[C@@](C)(O)[C@H]3C[C@@H]12 [tetracycline] | 1 fold |  |  | 2 fold |  | 1 fold |  | 1 fold |  | 1 fold |  | 1 fold |  | 1 fold | 0.195 µg/mL | 0.195 µg/mL | 0.195 µg/mL | 0.195 µg/mL | 0.195 µg/mL | 0.195 µg/mL | MIC (EKO-35 araC::acrB Pore): 0.391 µg/mL; MIC (EKO-35 araC::mdtBC Pore): 0.195 µg/mL
6 | O=C(Nc1cccc(Oc2c(F)c(F)c(F)c(F)c2F)c1)c1ccccc1 [compound 1] | 1 fold | 320 µg/mL | 320 µg/mL | 1 fold | 320 µg/mL | 1 fold | 320 µg/mL | 1 fold | 320 µg/mL | 1 fold | 320 µg/mL | 1 fold | 320 µg/mL | 1 fold |  |  |  |  |  |  | Minimum inhibitory concentration (EKO-35 araC::mexCD Pore): 320 µg/mL
7 | CC[C@H]1OC(=O)[C@H](C)[C@@H](O[C@H]2C[C@@](C)(OC)[C@@H](O)[C@H](C)O2)[C@H](C)[C@@H](O[C@@H]2O[C@H](C)C[C@H](N(C)C)[C@H]2O)[C@](C)(O)C[C@@H](C)CN(C)[C@H](C)[C@@H](O)[C@]1(C)O [azithromycin] | 1 fold |  |  | 4 fold |  | 2 fold |  | 1 fold |  | 1 fold |  | 1 fold |  | 2 fold | 0.049 µg/mL | 0.049 µg/mL | 0.098 µg/mL | 0.024 µg/mL | 0.049 µg/mL | 0.098 µg/mL | MIC (EKO-35 araC::acrB Pore): 0.195 µg/mL; MIC (EKO-35 araC::mdtBC Pore): 0.049 µg/mL; efflux pump-mediated resistance vs EKO-35-Pore (EKO-35 araC::mexCD Pore): no longer associated MexCD with resistance
8 | COc1cccc2c1C(=O)c1c(O)c3c(c(O)c1C2=O)C[C@@](O)(C(C)=O)C[C@@H]3O[C@H]1C[C@H](N)[C@H](O)[C@H](C)O1 [daunorubicin] | 1 fold |  |  |  |  | 1 fold |  | 2 fold |  | 2 fold |  | 4 fold |  | 16 fold | 0.781 µg/mL | 0.781 µg/mL | 0.781 µg/mL | 1.56 µg/mL | 1.56 µg/mL | 12.5 µg/mL | MIC (EKO-35 araC::mdtBC Pore): 3.12 µg/mL; efflux pump-mediated resistance vs EKO-35-Pore (EKO-35 araC::mdtBC Pore): associated with resistance
9 | CO[C@H]1/C=C/O[C@@]2(C)Oc3c(C)c(O)c4c(O)c(c(/C=N/N5CCN(C)CC5)c(O)c4c3C2=O)NC(=O)/C(C)=C\C=C\[C@H](C)[C@H](O)[C@@H](C)[C@@H](O)[C@@H](C)[C@H](OC(C)=O)[C@@H]1C [rifampicin] | 1 fold |  |  |  |  |  |  |  |  |  |  |  |  |  | 0.391 µg/mL | 0.391 µg/mL | 0.195 µg/mL | 0.391 µg/mL | 0.195 µg/mL | 0.391 µg/mL | MIC (EKO-35 araC::acrB Pore): 1.56 µg/mL
